From ChEMBL document CHEMBL3576804, “Novel Potent Orthosteric Antagonist of ASIC1a Prevents NMDAR-Dependent LTP Induction” (J Med Chem, 2015)
Active and inactive are the calls of the source. The calls are words filed in the database; no cut-off is given here.

Experiments:
[1] = biological target: T1, Acid-sensing ion channel 1 (Homo sapiens) (UniProt P78348); test: Reversible inhibition of human ASIC1a endogenously expressed in HEK293 cells clamped at -100 mV gated ionic current at pH 5.0 measured after drug wash out by standard whole cell patch clamp assay; type: cell-based
T1 sequence (whole entry): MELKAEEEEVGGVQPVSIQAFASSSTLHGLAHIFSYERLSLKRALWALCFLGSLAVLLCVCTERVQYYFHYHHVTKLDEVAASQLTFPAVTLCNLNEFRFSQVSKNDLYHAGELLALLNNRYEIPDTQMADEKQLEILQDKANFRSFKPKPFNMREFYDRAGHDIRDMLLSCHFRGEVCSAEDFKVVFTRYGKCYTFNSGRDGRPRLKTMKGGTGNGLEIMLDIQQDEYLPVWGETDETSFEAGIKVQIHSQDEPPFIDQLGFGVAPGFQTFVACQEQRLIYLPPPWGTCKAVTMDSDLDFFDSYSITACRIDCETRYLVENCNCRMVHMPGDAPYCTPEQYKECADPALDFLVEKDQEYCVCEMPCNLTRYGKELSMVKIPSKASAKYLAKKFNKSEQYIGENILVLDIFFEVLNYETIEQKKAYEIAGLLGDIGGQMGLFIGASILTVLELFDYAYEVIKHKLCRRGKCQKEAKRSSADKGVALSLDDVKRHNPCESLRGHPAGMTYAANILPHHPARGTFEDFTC

[2] = biological target: T2, Acid-sensing ion channel 1 (Homo sapiens, UniProt P78348); test: Inhibition of human ASIC1a endogenously expressed in HEK293 cells clamped at -100 mV gated ionic current at pH 5.0 by standard whole cell patch clamp assay; type: cell-based
T2 sequence (P78348 whole entry): T1 sequence (whole entry)

[3] = biological target: T1, Acid-sensing ion channel 1 (Homo sapiens); test: Inhibition of human ASIC1a endogenously expressed in HEK293 cells clamped at -100 mV gated ionic current at 100 nM at pH 5.0 by standard whole cell patch clamp assay; type: cell-based
[4] = biological target: T1, Acid-sensing ion channel 1 (Homo sapiens); test: Inhibition of human ASIC1a endogenously expressed in HEK293 cells clamped at -20 mV gated ionic current at 100 nM by standard whole cell patch clamp assay; type: cell-based
[5] = biological target: T3, Acid-sensing ion channel 3 (Rattus norvegicus) (UniProt O35240); test: Inhibition of ASIC3 in Wistar rat hippocampal neurons assessed as fast ASIC3-like currents level at 10 uM by patch clamp assay; set-up: scale not given: the % may be the effect or the level left
T3 sequence (whole entry): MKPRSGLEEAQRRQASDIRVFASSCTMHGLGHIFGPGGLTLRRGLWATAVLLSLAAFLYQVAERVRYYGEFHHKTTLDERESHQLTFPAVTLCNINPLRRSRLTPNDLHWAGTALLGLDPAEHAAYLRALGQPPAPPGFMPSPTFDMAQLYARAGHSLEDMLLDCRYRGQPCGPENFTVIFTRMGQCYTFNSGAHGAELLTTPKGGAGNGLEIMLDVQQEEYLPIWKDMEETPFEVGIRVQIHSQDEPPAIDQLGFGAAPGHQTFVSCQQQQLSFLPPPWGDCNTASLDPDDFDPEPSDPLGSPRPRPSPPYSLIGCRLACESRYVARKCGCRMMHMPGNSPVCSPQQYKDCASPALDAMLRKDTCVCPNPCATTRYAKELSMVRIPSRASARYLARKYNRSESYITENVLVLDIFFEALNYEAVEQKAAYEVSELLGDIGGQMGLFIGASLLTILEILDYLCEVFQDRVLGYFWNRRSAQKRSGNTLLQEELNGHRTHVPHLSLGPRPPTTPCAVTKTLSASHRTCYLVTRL

[6] = biological target: T1, Acid-sensing ion channel 1 (Homo sapiens); test: Orthosteric non-competitive inhibition of human ASIC1a endogenously expressed in HEK293 cells clamped at -100 mV gated ionic current assessed as maximal evoked response for steady-state activation at 1 uM by standard whole cell patch clamp assay relative to untreated control; type: cell-based; set-up: scale not given: the % may be the effect or the level left
[7] = biological target: T1, Acid-sensing ion channel 1 (Homo sapiens); test: Orthosteric non-competitive inhibition of human ASIC1a endogenously expressed in HEK293 cells clamped at -100 mV gated ionic current assessed as maximal evoked response for steady-state activation at 10 nM by standard whole cell patch clamp assay relative to untreated control; type: cell-based; set-up: scale not given: the % may be the effect or the level left
[8] = biological target: T1, Acid-sensing ion channel 1 (Homo sapiens); test: Inhibition of human ASIC1a endogenously expressed in HEK293 cells clamped at -100 mV gated ionic current at 100 nM at pH 6.7 by standard whole cell patch clamp assay; type: cell-based
[9] = biological target: T2, Acid-sensing ion channel 1; test: Orthosteric non-competitive inhibition of human ASIC1a endogenously expressed in HEK293 cells clamped at -100 mV gated ionic current assessed as EC50 for steady state activation at 10 nM by standard whole cell patch clamp assay (reference value: 6.57 +/- 0.01 pH); type: cell-based
[10] = biological target: T4, Acid-sensing ion channel 2 (Rattus norvegicus) (UniProt Q62962); test: Inhibition of ASIC2 in Wistar rat hippocampal neurons assessed as slow ASIC2-like currents level at 10 uM by patch clamp assay; set-up: scale not given: the % may be the effect or the level left
T4 sequence (whole entry): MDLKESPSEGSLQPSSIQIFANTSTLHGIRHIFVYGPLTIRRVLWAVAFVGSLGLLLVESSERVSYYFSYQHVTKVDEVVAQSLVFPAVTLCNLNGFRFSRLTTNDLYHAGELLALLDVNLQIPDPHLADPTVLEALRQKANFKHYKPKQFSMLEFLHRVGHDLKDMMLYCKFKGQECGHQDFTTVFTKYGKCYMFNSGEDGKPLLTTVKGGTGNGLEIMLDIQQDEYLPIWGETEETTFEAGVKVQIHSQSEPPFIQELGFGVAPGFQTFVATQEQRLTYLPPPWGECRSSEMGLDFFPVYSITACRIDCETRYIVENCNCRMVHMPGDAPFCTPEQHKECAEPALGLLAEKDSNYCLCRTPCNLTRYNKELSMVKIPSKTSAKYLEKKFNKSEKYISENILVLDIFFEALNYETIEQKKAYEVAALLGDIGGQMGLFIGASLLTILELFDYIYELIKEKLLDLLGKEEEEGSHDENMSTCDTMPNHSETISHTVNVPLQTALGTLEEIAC

Hippocampus [11] = test: Effect on slope of field excitatory postsynaptic potential in Wistar rat hippocampal CA3-CA1 region at 100 nM by patch clamp method; type: functional
[12] = biological target: T1, Acid-sensing ion channel 1 (Homo sapiens); test: Inhibition of human ASIC1a endogenously expressed in HEK293 cells clamped at -100 mV gated ionic current at 100 nM in presence of cellular membrane depolarization by standard whole cell patch clamp assay; type: cell-based
[13] = biological target: T5, Acid-sensing ion channel 1 (Rattus norvegicus) (UniProt P55926); test: Inhibition of ASIC1a in Wistar rat hippocampal neurons assessed as ASIC1a-like currents level at 10 uM by patch clamp assay; set-up: scale not given: the % may be the effect or the level left
T5 sequence (whole entry): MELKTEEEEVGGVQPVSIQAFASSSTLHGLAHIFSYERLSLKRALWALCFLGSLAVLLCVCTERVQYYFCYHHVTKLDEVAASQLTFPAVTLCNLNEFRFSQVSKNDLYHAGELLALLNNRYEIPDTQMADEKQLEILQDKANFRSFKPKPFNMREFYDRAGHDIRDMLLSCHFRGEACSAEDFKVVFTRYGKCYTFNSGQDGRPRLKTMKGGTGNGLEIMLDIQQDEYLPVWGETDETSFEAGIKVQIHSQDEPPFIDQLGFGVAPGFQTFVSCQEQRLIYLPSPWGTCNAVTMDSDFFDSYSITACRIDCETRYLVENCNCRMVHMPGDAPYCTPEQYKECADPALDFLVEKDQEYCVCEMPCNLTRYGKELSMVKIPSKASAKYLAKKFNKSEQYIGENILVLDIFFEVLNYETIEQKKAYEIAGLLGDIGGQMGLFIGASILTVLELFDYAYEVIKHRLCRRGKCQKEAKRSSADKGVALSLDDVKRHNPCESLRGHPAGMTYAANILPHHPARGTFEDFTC

[14] = biological target: T2, Acid-sensing ion channel 1; test: Inhibition of human ASIC1a endogenously expressed in HEK293 cells clamped at -100 mV gated ionic current at pH 6.7 by standard whole cell patch clamp assay; type: cell-based
Hippocampus [15] = test: Effect on NMDAR-independent long-term potentiation in Wistar rat hippocampal MF-CA3 region at 100 nM in presence of NMDA receptor blocker MK801 by patch clamp method (reference value: 118.3 +/- 9.6%); type: functional
[16] = biological target: T1, Acid-sensing ion channel 1 (Homo sapiens); test: Reversible inhibition of human ASIC1a endogenously expressed in HEK293 cells clamped at -100 mV gated ionic current at pH 6.7 measured after drug wash out by standard whole cell patch clamp assay; type: cell-based
[17] = biological target: T2, Acid-sensing ion channel 1; test: Orthosteric non-competitive inhibition of human ASIC1a endogenously expressed in HEK293 cells clamped at -100 mV gated ionic current assessed as EC50 for steady state activation at 100 nM by standard whole cell patch clamp assay (reference value: 6.57 +/- 0.01 pH); type: cell-based
[18] = biological target: T1, Acid-sensing ion channel 1 (Homo sapiens); test: Inhibition of human ASIC1a endogenously expressed in HEK293 cells clamped at -100 mV gated ionic current at 100 nM by standard whole cell patch clamp assay; type: cell-based
[19] = biological target: T1, Acid-sensing ion channel 1 (Homo sapiens); test: Inhibition of human ASIC1a endogenously expressed in HEK293 cells clamped at -100 mV gated ionic current at 10 uM at pH 6.7 by standard whole cell patch clamp assay; type: cell-based
Hippocampus [20] = test: Effect on amplitude of field excitatory postsynaptic potential in Wistar rat hippocampal CA3-CA1 region at 100 nM by patch clamp method; type: functional
[21] = biological target: T2, Acid-sensing ion channel 1; test: Orthosteric non-competitive inhibition of human ASIC1a endogenously expressed in HEK293 cells clamped at -100 mV gated ionic current assessed as EC50 for steady state activation at 1 uM by standard whole cell patch clamp assay (reference value: 6.57 +/- 0.01 pH); type: cell-based
Hippocampus [22] = test: Increase in slope of field excitatory postsynaptic potential in Wistar rat hippocampal CA3-CA1 region at 100 nM by patch clamp method; type: functional, tissue-based
[23] = biological target: T1, Acid-sensing ion channel 1 (Homo sapiens); test: Orthosteric non-competitive inhibition of human ASIC1a endogenously expressed in HEK293 cells clamped at -100 mV gated ionic current assessed as maximal evoked response for steady-state activation at 100 nM by standard whole cell patch clamp assay relative to untreated control; type: cell-based; set-up: scale not given: the % may be the effect or the level left
[24] = biological target: T1, Acid-sensing ion channel 1 (Homo sapiens); test: Inhibition of human ASIC1a endogenously expressed in HEK293 cells clamped at -100 mV gated ionic current at 10 uM at pH 5.0 by standard whole cell patch clamp assay; type: cell-based
Hippocampus [25] = test: Inhibition of amplitude of excitatory postsynaptic currents in Wistar rat hippocampal CA3-CA1 region at 100 nM by patch clamp method; type: functional, tissue-based
Hippocampus [26] = test: Increase in amplitude of field excitatory postsynaptic potential in Wistar rat hippocampal CA3-CA1 region at 100 nM by patch clamp method; type: functional, tissue-based
Hippocampus [27] = test: Blocking of short-term potentiation in Wistar rat hippocampal CA3-CA1 regions at 100 nM by patch clamp method (Rvb =142.9 +/- 25%); type: functional
Hippocampus [28] = test: Inhibition of amplitude of inhibitory postsynaptic currents in Wistar rat hippocampal CA3-CA1 region at 100 nM by patch clamp method; type: functional, tissue-based
[29] = biological target: T5, Acid-sensing ion channel 1 (Rattus norvegicus); test: Inhibition of ASIC1a in Wistar rat pyramidal hippocampal neurons assessed as reduction in main ionic currents at 1 uM by patch clamp assay
Hippocampus [30] = test: Increase in short-term potentiation in Wistar rat hippocampal CA3-CA1 region at 100 nM by patch clamp method (reference value: 225.9 +/- 12.4%); type: functional
[31] = biological target: T5, Acid-sensing ion channel 1 (Rattus norvegicus); test: Inhibition of ASIC1a in Wistar rat pyramidal hippocampal neurons assessed as ASIC1a-like currents level at 100 nM by patch clamp assay; set-up: scale not given: the % may be the effect or the level left
[32] = biological target: T1, Acid-sensing ion channel 1 (Homo sapiens); test: Inhibition of human ASIC1a endogenously expressed in HEK293 cells clamped at -100 mV gated ionic current at 100 uM at pH 6.7 by standard whole cell patch clamp assay; type: cell-based
[33] = biological target: T1, Acid-sensing ion channel 1 (Homo sapiens); test: Inhibition of human ASIC1a endogenously expressed in HEK293 cells clamped at -100 mV gated ionic current at 100 uM at pH 5.0 by standard whole cell patch clamp assay; type: cell-based

## CCN(CC)CCN(Cc1ccc(Cl)cc1)c1ccc2cc(C(=N)N)c(=O)oc2c1
[1]
  inhibition: Active
[2]
  IC50: 7.34 µM
[3]
  inhibition: 98.6%
[4]
  inhibition: 45.8%
[5]
  Activity: 45.2%
[6]
  Activity: 72.2%
[7]
  Activity: 93.2%
[8]
  inhibition: 23.7%
[9]
  EC50: 6.5 pH
[10]
  Activity: 99.3%
Hippocampus [11]
  Activity: 103.4%
[12]
  inhibition: Active
[13]
  Activity: 48.3%
[14]
  IC50: 27.4 nM
Hippocampus [15]
  Activity: 117%
[16]
  inhibition: Active
[17]
  EC50: 6.4 pH
[18]
  inhibition: 42.1%
[19]
  inhibition: 2.5%
Hippocampus [20]
  Activity: 104.6%
[21]
  EC50: 6.18 pH
Hippocampus [22]
  Activity: Active
[23]
  Activity: 83.9%
[24]
  inhibition: 44.8%
Hippocampus [25]
  inhibition: inactive
Hippocampus [26]
  Activity: Active
Hippocampus [27]
  Activity: 106.2%
Hippocampus [28]
  inhibition: inactive
[29]
  inhibition: inactive
Hippocampus [30]
  Activity: 193.2%
[31]
  Activity: 9.39%

## CCN(CC)CCN(CC)c1ccc2cc(C(=N)N)c(=O)oc2c1
[19]
  inhibition: 77.5%
[32]
  inhibition: 53.2%
[24]
  inhibition: 101%
[33]
  inhibition: 78.7%

## CN(Cc1ccccc1)c1ccc2cc(C(=N)N)c(=O)oc2c1
[19]
  inhibition: 42.9%
[32]
  inhibition: 22.3%
[24]
  inhibition: 79.2%
[33]
  inhibition: 36.6%
